Measured values taken from the supplement of paper PMC10307832.

Tests used:
Assay in all cases: relative viability (nuclei count vs DMSO), 5 days (fraction); higher = more cells survive
[1] = compound: COc1cc(Nc2c(C#N)cnc3cc(OCCCN4CCN(C)CC4)c(OC)cc23)c(Cl)cc1Cl [Bosutinib] + N=C(N)NC(=N)NCCc1ccccc1 [Phenformin] (partner 250 µM)
Method in brief: (§1)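 Lung cancer cell lines were pin-tool dosed in 1536-well plates on the day after seeding, with either a lone drug or a fixed anchor-drug dose plus five library-drug doses (not always all listed) in √10 steps. Nuclei were counted on 4× images after 5 days. Relative viability is the ratio of treated-well to vehicle-well nuclei counts, with each value a median of duplicate plates.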

[2] = compound: COc1cc(Nc2c(C#N)cnc3cc(OCCCN4CCN(C)CC4)c(OC)cc23)c(Cl)cc1Cl [Bosutinib] + CS(=O)(=O)CCNCc1ccc(-c2ccc3ncnc(Nc4ccc(OCc5cccc(F)c5)c(Cl)c4)c3c2)o1 [Lapatinib] (partner 2 µM)
Method in brief: as §1

[3] = compound: COc1cc(Nc2c(C#N)cnc3cc(OCCCN4CCN(C)CC4)c(OC)cc23)c(Cl)cc1Cl [Bosutinib] + CS(=O)(=O)N1CCN(Cc2cc3nc(-c4cccc5[nH]ncc45)nc(N4CCOCC4)c3s2)CC1 [Pictilisib] (partner 1 µM)
Method in brief: as §1

[4] = compound: COc1cc(Nc2c(C#N)cnc3cc(OCCCN4CCN(C)CC4)c(OC)cc23)c(Cl)cc1Cl [Bosutinib] + Cc1nc(Nc2ncc(C(=O)Nc3c(C)cccc3Cl)s2)cc(N2CCN(CCO)CC2)n1 [Dasatinib] (partner 0.075 µM)
Method in brief: as §1

[5] = compound: COc1cc(Nc2c(C#N)cnc3cc(OCCCN4CCN(C)CC4)c(OC)cc23)c(Cl)cc1Cl [Bosutinib] + Cc1nc(NC(=O)N2CCC[C@H]2C(N)=O)sc1-c1ccnc(C(C)(C)C(F)(F)F)c1 [Alpelisib] (partner 2 µM)
Method in brief: as §1

| Cell Line | relative viability ([1]; first compound 0.01 µM) | relative viability ([1]; first compound 0.03162 µM) | relative viability ([1]; first compound 0.1 µM) | relative viability ([1]; first compound 1 µM) | relative viability ([2]; first compound 0.01 µM) | relative viability ([2]; first compound 0.03162 µM) | relative viability ([2]; first compound 0.1 µM) | relative viability ([2]; first compound 1 µM) | relative viability ([3]; first compound 0.01 µM) | relative viability ([3]; first compound 0.03162 µM) | relative viability ([3]; first compound 0.1 µM) | relative viability ([3]; first compound 1 µM) | relative viability ([4]; first compound 0.01 µM) | relative viability ([4]; first compound 0.03162 µM) | relative viability ([4]; first compound 0.1 µM) | relative viability ([4]; first compound 1 µM) | relative viability ([5]; first compound 0.01 µM) | relative viability ([5]; first compound 0.03162 µM) | relative viability ([5]; first compound 0.1 µM) | relative viability ([5]; first compound 1 µM) |
| --- | --- | --- | --- | --- | --- | --- | --- | --- | --- | --- | --- | --- | --- | --- | --- | --- | --- | --- | --- | --- |
| HCC-366 | 0.63 | 0.61 | 0.555 | 0.53 | 1.16 | 0.942 | 0.939 | 0.884 | 0.154 | 0.144 | 0.181 | 0.121 | 0.755 | 0.627 | 0.692 | 0.66 | 0.532 | 0.416 | 0.305 | 0.111 |
| HCC-827 | 0.427 | 0.407 | 0.366 | 0.19 | 0.167 | 0.25 | 0.19 | 0.169 | 0.971 | 0.763 | 1.12 | 0.749 | 0.287 | 0.279 | 0.307 | 0.178 | 0.972 | 0.971 | 1.03 | 0.576 |
| HOP-62 | 0.699 | 0.706 | 0.65 | 0.741 | 0.977 | 1.12 | 1.08 | 1.01 | 0.898 | 0.787 | 0.698 | 0.819 | 0.692 | 0.639 | 0.671 | 0.688 | 0.977 | 1 | 1.1 | 0.889 |
| IA-LM |  |  |  |  | 0.811 | 0.848 | 0.92 | 0.798 |  | 0.365 | 0.317 | 0.359 |  |  |  |  | 0.832 | 0.733 | 0.931 | 0.674 |
| LC-2-ad | 0.659 | 0.549 | 0.577 | 0.694 | 0.99 | 0.92 | 1.05 | 1.01 | 0.571 | 0.45 | 0.459 | 0.419 | 0.678 | 0.701 | 0.659 | 0.906 | 0.883 | 0.975 | 0.92 | 0.864 |
| LCLC-97TM1 | 0.452 | 0.434 | 0.541 | 0.411 | 1.43 | 1.29 | 1.24 | 1.14 | 0.182 | 0.221 | 0.254 | 0.267 | 0.849 | 0.869 | 0.851 | 0.685 | 0.232 | 0.244 | 0.371 | 0.344 |
| LCLC-103H | 0.338 | 0.322 | 0.327 | 0.409 |  |  |  |  | 0.632 | 0.68 | 0.702 | 0.646 | 0.513 | 0.502 | 0.567 | 0.449 | 0.992 | 1.06 | 0.94 | 0.871 |
| LK-2 | 0.711 | 0.552 | 0.382 | 0.348 | 0.848 | 1.12 | 0.944 | 0.803 | 0.645 | 0.603 | 0.577 | 0.378 | 0.288 | 0.287 | 0.264 | 0.296 | 1.11 | 1.08 | 1.05 | 0.761 |
| LOU-NH91 | 0.717 | 0.699 | 0.636 | 0.497 | 0.759 | 0.824 | 0.791 | 0.723 | 0.492 | 0.524 | 0.504 | 0.468 | 0.578 | 0.577 | 0.547 | 0.556 | 0.807 | 0.7 | 0.638 | 0.46 |
| LU99A | 0.92 | 0.781 | 0.832 | 0.478 | 1.05 | 1.01 | 0.976 | 0.876 | 0.324 | 0.321 | 0.375 | 0.345 | 0.611 | 0.582 | 0.635 | 0.548 | 0.53 | 0.545 | 0.568 | 0.674 |
| LXF-289 | 0.508 | 0.515 | 0.521 | 0.514 | 0.881 | 0.912 | 0.913 | 0.929 | 0.815 | 0.865 | 0.818 | 0.778 | 0.231 | 0.213 | 0.2 | 0.224 | 1.03 | 0.986 | 1.01 | 1.06 |
| NCI-H23 | 0.807 | 0.77 | 0.831 | 0.751 | 1.09 | 1.06 | 1.2 | 1.11 | 0.523 | 0.503 | 0.531 | 0.481 | 0.927 | 0.937 | 0.679 | 0.76 | 0.674 | 0.666 | 0.519 | 0.546 |
| NCI-H322M | 0.865 | 0.777 | 0.846 | 0.449 | 0.51 | 0.589 | 0.623 | 0.573 | 0.469 | 0.495 | 0.525 | 0.485 | 0.252 | 0.267 | 0.246 | 0.301 | 0.665 | 0.741 | 0.717 | 0.81 |
| NCI-H441 | 0.946 | 0.869 | 0.821 | 0.657 |  |  |  |  | 0.669 | 0.483 | 0.634 | 0.459 | 0.55 | 0.667 | 0.676 | 0.848 | 0.475 | 0.689 | 0.733 | 1.11 |
| NCI-H522 | 0.657 | 0.623 | 0.63 | 0.613 |  |  |  |  |  |  |  |  | 0.89 | 0.691 | 0.794 | 0.979 |  |  |  |  |
| NCI-H1650 | 0.434 | 0.344 | 0.339 | 0.318 | 0.835 | 0.731 | 0.745 | 0.636 | 0.587 | 0.516 | 0.524 | 0.49 | 0.357 | 0.317 | 0.375 | 0.457 |  |  |  |  |
| NCI-H1703 |  |  |  |  | 1.04 | 1.1 | 0.825 | 0.653 | 0.246 | 0.235 | 0.242 | 0.228 |  |  |  |  | 0.351 | 0.378 | 0.294 | 0.261 |
| SW 900 | 0.577 |  | 0.686 | 0.458 |  |  |  |  |  |  |  |  | 0.774 |  | 0.682 | 0.749 |  |  |  |  |
